Reference: US6812028B1, “Embryogenesis and plant regeneration from microspores” (University of Guelph, priority 1999, dated 2004)

How the values were obtained:
[1] = test system: barley genotype Igri microspores; assay: Effect of duration of pretreatment on embryo formation; format: cell-based
Protocol: The effect of the duration of pre-treatment on embryogenesis from barley genotype Igri for spikes incubated with 0.3 mol/L mannitol at 4° C. Table 3 illustrates that as few as 4 days of pre-treatment drastically effects the number of embryos formed from microspores. Although the number formed increases up to 28 days of pre-treatment, only a 4 day period is required to achieve beneficial effects. […] However, duration of pre-treatment did appear to effect Oxbow as previously mentioned, and as illustrated in Table 2.

barley microspores = assay: Embryo induction and regeneration following pretreatment of barley genotypes; format: cell-based; details: for % embryoid Regeneration: 500 embryos per plate; for Embryoids: average from 3 plates
Protocol: Embryogenesis from thirty different barley genotypes was conducted according to the procedure in accordance with the present invention. Between 10,000 to 15,000 embryos were usually produced per plate. Table 2 illustrates some counts of embryos based on an average of three replications (plates). Not all thirty genotypes were counted. However, response of each genotype was judged on the basis of the appearance of plates after two weeks and again after 4 to 5 weeks. Random samples of 500 embryos were taken from the counted plates and placed on regeneration media to estimate the embryo regeneration ability. […] FIG. 4 illustrates barley c.v. Igri embryo development at 3 weeks (FIG. 4(a)) and 5 weeks (FIG. 4(b)) on filter paper placed on solidified induction media.
Three different pre-treatments were compared within the genotype Igri and no apparent differences were observed relative to embryo induction or regeneration (Table 2). Lina normally responds well in microspore culture following a mannitol pre-treatment, but in this study using the combination of cold plus mannitol for 7 days, response was low. Thus, embryo formation was also counted in Lina when a 21 day cold pretreatment had been used and this response was more typical of Lina (Table 2). The regeneration response from the two pretreatment methods on Lina was similar. The frequency of fertile doubled haploids among the Lina progeny following the two pretreatments was not different, namely 79% after the combination 7-day treatment and 83% after the 21 day cold pretreatment.
Embryogenesis was visually assessed in barley winter genotypes; OAC Elmira, GBC776, GBC779, GBC780 and GBC781, and spring genotypes, Trinity, Cooper, Golden Promise, Disa, Morex, Excel, Elrose, Bruce, Rodeo, H936 and Sabarilis. […] Under these conditions about 2,000 plants per 10^5 microspores, or about 200 plants per spike on responsive genotypes has been observed.

[2] = GBC 777, pretreatment 4 d 0.3M man. 4° C.
[3] = GBC 778, pretreatment 4 d 3.3M man. 4° C.
[4] = Harrington, pretreatment 3 d 0.3M man. 4° C.
[5] = Igri, pretreatment 4 d 0.3M man. 4° C.
[6] = Igri, pretreatment 4 d 0.3M man. 25° C.
[7] = Lina, pretreatment 7 d 0.3M man 4° C.
[8] = Manley, pretreatment 4 d 0.3M man. 4° C.
[9] = Oxbow, pretreatment 21 d 0.3M man. 4° C.
[10] = cold plus mannitol pre-treatment 3 to 4 days, 0.3 mol/liter mannitol at 4° C., responsive genotypes

OC[C@@H](O)[C@@H](O)[C@H](O)[C@H](O)CO [mannitol]
# Embryos formed ([1]; 4 d pretreatment of spikes at 4° C. in 0.3 mol/liter mannitol): 9579 | # Embryos formed ([1]; 7 d pretreatment of spikes at 4° C. in 0.3 mol/liter mannitol): 9693 | # Embryos formed ([1]; 14 d pretreatment of spikes at 4° C. in 0.3 mol/liter mannitol): 8981 | # Embryos formed ([1]; 21 d pretreatment of spikes at 4° C. in 0.3 mol/liter mannitol): 9692 | # Embryos formed ([1]; 28 d pretreatment of spikes at 4° C. in 0.3 mol/liter mannitol): 10213 | % embryoid Regeneration (barley microspores; [2]): 89% | Embryoids (barley microspores; [2]): 14133 | % embryoid Regeneration (barley microspores; [3]): 84% | Embryoids (barley microspores; [3]): 7667 | Embryoids (barley microspores; GBC 782, pretreatment 3 d 0.3M man. 4° C.): 14496 | Embryoids (barley microspores; GBC 783, pretreatment 3 d 0.3M man. 4° C.): 11360 | % embryoid Regeneration (barley microspores; [4]): 36% | Embryoids (barley microspores; [4]): 5533 | % embryoid Regeneration (barley microspores; [5]): 97% | Embryoids (barley microspores; [5]): 12380 | % embryoid Regeneration (barley microspores; [6]): 88% | Embryoids (barley microspores; [6]): 13504 | frequency of fertile doubled haploids among the Lina progeny (barley microspores; Lina, combination of cold plus mannitol for 7 days): 79% | % embryoid Regeneration (barley microspores; [7]): 81% | Embryoids (barley microspores; [7]): 8921 | % embryoid Regeneration (barley microspores; [8]): 74% | Embryoids (barley microspores; [8]): 11360 | % embryoid Regeneration (barley microspores; [9]): 58% | Embryoids (barley microspores; [9]): 10810 | plants per 10^5 microspores (barley microspores; [10]): about 2,000 plants per 10^5 microspores | plants per spike (barley microspores; [10]): about 200 plants per spike
